In patent US20230097253A1, “NOVEL QUINAZOLINE COMPOUND AS THERAPEUTIC AGENT FOR METABOLIC DISORDERS” (BIOWAY., INC, priority 2020, published 2023):

Assays:
DIAMOND™ mouse model [1] = assay: Insulin resistance test; type: in vivo; conditions: insulin 0.75 UU/kg intraperitoneally after 6 hours fasting; at 0 and 90 minutes, statistical significance vs control group (VC); FIG. 20
Description: (§1) The DIAMOND™ mouse model, an animal model prepared using a Western diet and sugar water, was used. The DIAMOND™ mice were induced with WDSW for 14 weeks, and 12 mice were used for the control group and 12 mice for the BW-3290 treatment group, and BW-3290 was orally administered at 16 mg/kg once daily for 8 weeks. An autopsy was performed at week 22, and blood collection and tissue storage were performed for the individuals in each group.
The insulin resistance test was performed one week before autopsy, and the subject was fasted for 6 hours.
Insulin was injected intraperitoneally at a concentration of 0.75 UU/kg, and the blood was collected 15 minutes, 30 minutes, 45 minutes, and 90 minutes after the injection, and the blood glucose levels were measured using the OneTouch Plus Ultra Glucometer and glucose scores were evaluated therefrom.

DIAMOND™ mouse model [2] = assay: In-vivo activity, histopathological diagnosis (H&E and Oil-Red-O staining of liver tissue); conditions: DIAMOND mice, 16 mg/kg oral once daily for 8 weeks, FIG. 18
Description: as §1
Hematoxylin & Eosin (H&E) staining and Oil-Red-O (ORO) staining were performed using liver tissue obtained after autopsy

[3] = system: steatosis-induced Huh-7 cells; assay: Expression of fat-oxidation promoting proteins (western blot) compared to existing developed materials; type: cell-based; conditions: 250 μM PA, BW-3290 0.5, 2.5, 10 μM vs comparators 1 and 10 μM, 24 hours, FIG. 4
Description: To induce steatosis in Huh-7 cells in each well except for control cells, the Huh-7 cells were treated with PA bound to 2% BSA at a concentration of 250 μM except for the control, and the control cells were pretreated with 2% BSA without FA.
The cells in each well were treated with the compounds of the present invention, BW-3290, 0.5 μM, 2.5 μM, and 10 μM, PF-06409577 1 μM and 10 μM, and elafibranor 1 μM and 10 μM, respectively and then cultured for 24 hours. The control cells and PA treated cells were treated with DMSO. All media were aspirated and the cells were gently washed 3 times with cold PBS.
A cold lysis buffer containing 150 mM sodium chloride (NaCl), 5 mM ethylenediaminetetraacetic acid (EDTA), pH 8.0, […] 4-(2-hydroxyethyl)-1-piperazineethanesulfonic acid (HEPES), 1% nonylphenoxypolyethoxylethanol (NP-40), aprotinin (2 μg/mL), 1 μM pepstatin A, 10 μM leupeptin, 1 mM sodium fluoride (NaF), 0.2 mM sodium orthovanadate ([…]), and 1 μM phenylmethylsulfonyl fluoride (PMSF) was added thereto.
A whole cell lysate was collected and gently pipetted at least 10 times to ensure complete lysis. The sample was incubated on ice for 20 minutes and centrifuged 4° C. at 13,000 rpm, for 20 minutes. […]
Images were acquired using an ImageQuant LAS 3000 (Fujifilm, Tokyo, Japan). Data were analyzed.

`CC(C)C(Nc1ncnc2nc[nH]c12)c1nc2cccc(Cl)c2c(=O)n1-c1ccccc1` (centres unmarked) [BW-3290, 2-(1-((7H-purin-6-yl)amino)-2-methylpropyl)-5-chloro-3-phenylquinazolin-4(3H)-one] was tested, and the glucose score (DIAMOND™ mouse model [1]) was “decreased”, the “fat cells stained in red in liver tissue, ORO staining” value (DIAMOND™ mouse model [2]; compared to the control group (VC)) was “reduced” and the “fat globules in liver tissue, H&E staining” value (DIAMOND™ mouse model [2]; compared to the control group) was “reduced”. For the same compound, the “expression of LCAD (fatty acid oxidation-related protein) compared to PF-064099577 and elafibranor” value [3] was “same or higher effect of fatty acid degradation” and the “p-ACC expression (inhibition of fat accumulation) compared to PF-064099577 and elafibranor” value [3] was “same or higher effect of inhibiting fat accumulation”.
